Test results from patent publication US12187816B2, “Macrocyclic compounds and methods of use thereof” (Genentech, Inc., priority 2020, dated 2025).
Starred links: 1 amine or outer side, 2 acyl side, 3 side chain; linkers in the order of their positions; H or OH if unused. Positions of bridges follow the written chain, without caps; N, C: chain ends. Non-standard residues stand in square brackets, D forms with d. Residues, ends and D or L forms follow the SMILES beside them. *: point of attachment. X11 = CC(=O)N1c2ccc(-c3ccc(C(=O)*)cc3)cc2[C@H](Nc2ccc(Cl)cc2)C[C@@H]1C; JQ1acid = Cc1sc2c(c1C)C(c1ccc(Cl)cc1)=N[C@@H](CC(=O)*)c1nnc(C)n1-2; dPhg(4-(4-Me-thiazol-5-yl)) = Cc1ncsc1-c1ccc([C@@H](N)C(=O)O)cc1; Phg(4-(4-Me-thiazol-5-yl)) = Cc1ncsc1-c1ccc([C@H](N)C(=O)O)cc1; X2 = COc1ccc2c(c1)C(c1ccc(Cl)cc1)=N[C@@H](CC(=O)*)c1nnc(C)n1-2; X13 = Cc1ncsc1-c1ccc(C[C@@H](N[*:1])C(=O)[*:2])cc1; X3 = Cc1ncsc1-c1ccc(C(N[*:1])C(=O)[*:2])cc1; dBip = N[C@H](Cc1ccc(-c2ccccc2)cc1)C(=O)O; X4 = O=C([C@H]1CN([*:3])CCN1[*:1])[*:2]; Hyp = O=C(O)[C@@H]1C[C@@H](O)CN1; d(β3hK) = NCCCC[C@@H](N)CC(=O)O; Tle = CC(C)(C)[C@H](N)C(=O)O; d(hCys) = N[C@H](CCS)C(=O)O; dDab = NCC[C@@H](N)C(=O)O; dDap = NC[C@@H](N)C(=O)O; Dap = NC[C@H](N)C(=O)O; Ahp = NCCCCCCC(=O)O; AEA = NCCOCC(=O)O; GABA = NCCCC(=O)O

target: T1, BRD4 (Homo sapiens, UniProt O60885); experiment: BRD4 degradation assay in EOL1 cells (immunofluorescence imaging); assay type: cell-based; conditions: EoL-1 eosinophilic leukemia cells, 4 hours treatment, nuclear BRD4 immunofluorescence
T1 construct: Mean 488 intensity of BRD4 quantitated in nuclear region; endogenous in cells; host or cells: EoL-1 eosinophilic leukemia cells
Description: BRD4 Degradation Assay in EOL1 Cells
EoL-1 eosinophilic leukemia cells were seeded on day 1 at a density of 45,000 cells per well in Corning PureCoat Amine Microplates, (Corning #354719) in 45 μL/well of assay media (RPMI, 10% FBS, containing L-glutamine). After cells attached to cell plate, compounds were serially diluted ⅓ in dimethylsulfoxide (DMSO) to create 20-point dilutions across a 384 well v-bottom polypropylene microplate (Greiner #781091). 2 μL of each sample from the serial dilution was transferred to 98 μL of assay media as an intermediate dilution. 5 μL of each well of the intermediate dilution was added to 45 μL of cell plate. Columns 1, 2, 23 and 24 were treated with only 0.2% final concentration of DMSO for data normalization as “neutral controls”. After compound treatment, cell plates were stored in a 37° C. incubator for 4 hours. After 4 hours cells were fixed in 3.7% w/v final concentration of paraformaldehyde by addition of 15 μL of 16% w/v paraformaldehyde (Electron Microscopy Sciences #15710-S) directly to the 50 μL media and compound in the cell plate. Cell plate was incubated at RT for 20 minutes. Well contents were aspirated and washed with 100 μL/well PBS 3 times. 50 ul/well of phosphate Buffered Saline (PBS) (pH 7.5) containing 0.5% w/v bovine serum albumen, 0.5% w/v Triton X-100 (Block/Permeabilization Buffer) was added to each well. Samples were incubated for 20 minutes. Well contents were aspirated and washed 3 times with 100 μL/well of PBS. PBS was aspirated from the well and 50 μL per well of EoL-1 Block Buffer (PBS containing 10% Normal Goat Serum (AbCam #ab7481)) was added to each well. Plates were incubated at room temperature for 30 minutes. Block buffer was decanted from the wells. Immunofluorescence staining of BRD4 was carried out by diluting mAB Anti-BRD4 [EPR5150] antibody (Abcam 128874) 1:500 into Antibody Dilution Buffer (PBS, 2% Normal Goat Serum). 25 μL per well of BRD4 antibody diluted in buffer was added and incubated overnight at 4° C.
On day-2 samples were washed 3 times with 100 μL/well of PBS. 25 μL/well of secondary antibody solution (Goat Anti-Rabbit IgG, DyLight 488 Conjugated Highly Cross-adsorbed Thermo Fisher #35553) and Hoechst 33342 1 μg/ml diluted in Antibody Dilution Buffer) were dispensed into each well. Hoechst 33342 only was added to bottom 3 columns for data normalization as “inhibitor controls”. Samples were incubated for 2 hours at room temperature. Samples were washed 3 times with 100 μL PBS. Quantitative fluorescence imaging of BRD4 was carried out using an Opera Phenix High-Content Screening System. Fluorescent images of the samples were captured using 488 nm and 405 nm channels. Hoechst channel was used to identify nuclear region. Mean 488 intensity of BRD4 quantitated in nuclear region. Data analysis was carried out using Genedata Screener, with DMSO and no primary antibody control treated samples being used to define the 0% and 100% changes in BRD4. The dose-response log(inhibitor) vs. response used to define the inflexion point of curve (DC50) and the plateau of the maximal effect.
The individual topological polar surface area (TPSA) and cLogP values were calculated using Chemdraw v. 15.1 (PerkinElmer). Half life of the ternary VHL/BD1 and VHL/BD2 complexes, DC50 of BRD4 in EOL1 cells, topological polar surface area of a molecule (TPSA) and c log P (lipophilicity) for compounds described herein are provided in Table 3.

| Compound | DC50 |
| --- | --- |
| Cc1sc2c(c1C)C(c1ccc(Cl)cc1)=N[C@@H](CC(=O)NC[C@H]1NC(=O)[C@@H](Cc3ccccc3)NC(=O)[C@@H](Cc3ccc(-c4ccccc4)cc3)NC(=O)[C@@H]3C[C@@H](O)CN3C(=O)[C@H](C(C)(C)C)NC(=O)COCCNC1=O)c1nnc(C)n1-2 [Compound 44] (cyclo([AEA][Tle][Hyp][dBip][dF][dDap](JQ1acid))) | < 50 nM |
| Cc1sc2c(c1C)C(c1ccc(Cl)cc1)=N[C@@H](CC(=O)NC[C@H]1NC(=O)CNC(=O)[C@@H](Cc3ccc(-c4ccccc4)cc3)NC(=O)[C@@H]3C[C@@H](O)CN3C(=O)[C@H](C(C)(C)C)NC(=O)COCCNC1=O)c1nnc(C)n1-2 [Compound 40] (cyclo([AEA][Tle][Hyp][dBip]G[dDap](JQ1acid))) | < 50 nM |
| Cc1ncsc1-c1ccc([C@H]2NC(=O)[C@@H]3C[C@@H](O)CN3C(=O)[C@H](C(C)(C)C)NC(=O)CSC[C@H](C(N)=O)NC(=O)[C@H](NC(=O)C[C@@H]3N=C(c4ccc(Cl)cc4)c4c(sc(C)c4C)-n4c(C)nnc43)NC(=O)CNC2=O)cc1 [Compound 69] | > 20000 nM |
| COc1ccc2c(c1)C(c1ccc(Cl)cc1)=N[C@@H](CC(=O)NC[C@H]1NC(=O)[C@@H](C(C)C)NC(=O)[C@@H](Cc3ccc(-c4ccccc4)cc3)NC(=O)[C@@H]3C[C@@H](O)CN3C(=O)[C@H](C(C)(C)C)NC(=O)COCCNC1=O)c1nnc(C)n1-2 [Compound 52] (cyclo([AEA][Tle][Hyp][dBip][dV][dDap](X2))) | < 50 nM |
| Cc1ncsc1-c1ccc(C2NC(=O)[C@@H]3C[C@@H](O)CN3C(=O)[C@H](C(C)(C)C)NC(=O)CSCC[C@H](C(N)=O)NC(=O)[C@@H](CNC(=O)C[C@@H]3N=C(c4ccc(Cl)cc4)c4c(sc(C)c4C)-n4c(C)nnc43)NC(=O)CNC2=O)cc1 (stereo partly shown) [Compound 3] ({CH2CO}-[Tle][Hyp][X3]G[dDap](JQ1acid)[d(hCys)]-NH2; thioether N-6) | < 1000 nM |
| Cc1ncsc1-c1ccc([C@H]2NC(=O)[C@@H]3C[C@@H](O)CN3C(=O)[C@H](C(C)(C)C)NC(=O)CNC(=O)C[C@@H](CCCCNC(=O)C[C@@H]3N=C(c4ccc(Cl)cc4)c4c(sc(C)c4C)-n4c(C)nnc43)NC(=O)CNC2=O)cc1 [Compound 36] (cyclo(G[Tle][Hyp][dPhg(4-(4-Me-thiazol-5-yl))]G[d(β3hK)](JQ1acid))) | > 20000 nM |
| Cc1ncsc1-c1ccc([C@@H]2NC(=O)[C@@H]3C[C@@H](O)CN3C(=O)[C@H](C(C)(C)C)NC(=O)CNC(=O)[C@H](CCC(N)=O)NC(=O)[C@@H](CNC(=O)C[C@@H]3N=C(c4ccc(Cl)cc4)c4c(sc(C)c4C)-n4c(C)nnc43)NC(=O)CNC2=O)cc1 [Compound 7] (cyclo(G[Tle][Hyp][Phg(4-(4-Me-thiazol-5-yl))]G[dDap](JQ1acid)Q)) | < 20000 nM |
| Cc1sc2c(c1C)C(c1ccc(Cl)cc1)=N[C@@H](CC(=O)NC[C@H]1NC(=O)[C@@H](C(C)C)NC(=O)[C@@H](Cc3ccc(-c4ccccc4)cc3)NC(=O)[C@@H]3C[C@@H](O)CN3C(=O)[C@H](C(C)(C)C)NC(=O)COCCNC1=O)c1nnc(C)n1-2 [Compound 42] (cyclo([AEA][Tle][Hyp][dBip][dV][dDap](JQ1acid))) | < 50 nM |

Results, then the molecule that gave them:

| DC50 | Compound |
| --- | --- |
| < 1000 nM | Cc1sc2c(c1C)C(c1ccc(Cl)cc1)=N[C@@H](CC(=O)NC[C@H]1NC(=O)[C@@H](C)NC(=O)[C@@H](Cc3ccc(-c4ccccc4)cc3)NC(=O)[C@@H]3C[C@@H](O)CN3C(=O)[C@H](C(C)(C)C)NC(=O)CCCNC1=O)c1nnc(C)n1-2 [Compound 59] (cyclo([GABA][Tle][Hyp][dBip][dA][dDap](JQ1acid))) |
| < 20000 nM | Cc1ncsc1-c1ccc([C@H]2NC(=O)[C@@H]3C[C@@H](O)CN3C(=O)[C@H](C(C)(C)C)NC(=O)CSC[C@H](C(N)=O)NC(=O)[C@H]3CN(C(=O)C[C@@H]4N=C(c5ccc(Cl)cc5)c5c(sc(C)c5C)-n5c(C)nnc54)CCN3C(=O)CNC2=O)cc1 [Compound 25] ({CH2CO}-[Tle][Hyp][dPhg(4-(4-Me-thiazol-5-yl))]G[X4](JQ1acid)[dC]-NH2; thioether N-6) |
| < 1000 nM | Cc1sc2c(c1C)C(c1ccc(Cl)cc1)=N[C@@H](CC(=O)NC[C@H]1CCCNC(=O)[C@@H](Cc3ccc(-c4ccccc4)cc3)NC(=O)[C@@H]3C[C@@H](O)CN3C(=O)[C@H](C(C)(C)C)n3cc(nn3)C3(CC3)CNC(=O)CNC1=O)c1nnc(C)n1-2 [Compound 208] |
| < 1000 nM | Cc1sc2c(c1C)C(c1ccc(Cl)cc1)=N[C@@H](CC(=O)NC[C@H]1NC(=O)[C@@H](CCC(N)=O)NC(=O)[C@@H](Cc3ccc(-c4ccccc4)cc3)NC(=O)[C@@H]3C[C@@H](O)CN3C(=O)[C@H](C(C)(C)C)NC(=O)COCCNC1=O)c1nnc(C)n1-2 [Compound 66] (cyclo([AEA][Tle][Hyp][dBip][dQ][dDap](JQ1acid))) |
| > 20000 nM | CC(=O)N1c2ccc(-c3ccc(C(=O)NC[C@H]4NC(=O)CNC(=O)[C@@H](c5ccc(-c6scnc6C)cc5)NC(=O)[C@@H]5C[C@@H](O)CN5C(=O)[C@H](C(C)(C)C)NC(=O)CSC[C@H](C(N)=O)NC4=O)cc3)cc2[C@H](Nc2ccc(Cl)cc2)C[C@@H]1C [Compound 21] ({CH2CO}-[Tle][Hyp][dPhg(4-(4-Me-thiazol-5-yl))]G[dDap](X11)[dC]-NH2; thioether N-6) |
| > 20000 nM | Cc1ncsc1-c1ccc([C@H]2NC(=O)[C@@H]3C[C@@H](O)CN3C(=O)[C@H](C(C)(C)C)NC(=O)CSC[C@H](C(=O)NCC(=O)NCC(=O)NCC(N)=O)NC(=O)[C@@H](CNC(=O)C[C@@H]3N=C(c4ccc(Cl)cc4)c4c(sc(C)c4C)-n4c(C)nnc43)NC(=O)CNC2=O)cc1 [Compound 11] ({CH2CO}-[Tle][Hyp][dPhg(4-(4-Me-thiazol-5-yl))]G[dDap](JQ1acid)[dC]GGG-NH2; thioether N-6) |
| > 20000 nM | Cc1ncsc1-c1ccc([C@H]2NC(=O)[C@@H]3C[C@@H](O)CN3C(=O)[C@H](C(C)(C)C)NC(=O)CSC[C@H](C(N)=O)NC(=O)[C@@H](CCNC(=O)C[C@@H]3N=C(c4ccc(Cl)cc4)c4c(sc(C)c4C)-n4c(C)nnc43)NC(=O)CNC2=O)cc1 [Compound 9] ({CH2CO}-[Tle][Hyp][dPhg(4-(4-Me-thiazol-5-yl))]G[dDab](JQ1acid)[dC]-NH2; thioether N-6) |
| < 50 nM | Cc1sc2c(c1C)C(c1ccc(Cl)cc1)=N[C@@H](CC(=O)NC[C@H]1NC(=O)[C@@H](C)NC(=O)[C@@H](Cc3ccc(-c4ccccc4)cc3)NC(=O)[C@@H]3C[C@@H](O)CN3C(=O)[C@H](C(C)(C)C)n3cc(nn3)COCCNC1=O)c1nnc(C)n1-2 [Compound 201] |
| > 20000 nM | Cc1ncsc1-c1ccc([C@@H]2NC(=O)[C@@H]3C[C@@H](O)CN3C(=O)[C@H](C(C)(C)C)NC(=O)CSC[C@H](C(N)=O)NC(=O)[C@H](CNC(=O)C[C@@H]3N=C(c4ccc(Cl)cc4)c4c(sc(C)c4C)-n4c(C)nnc43)NC(=O)CNC2=O)cc1 [Compound 14] ({CH2CO}-[Tle][Hyp][Phg(4-(4-Me-thiazol-5-yl))]G[Dap](JQ1acid)[dC]-NH2; thioether N-6) |
| < 50 nM | Cc1sc2c(c1C)C(c1ccc(Cl)cc1)=N[C@@H](CC(=O)NC[C@H]1NC(=O)[C@@H](C)NC(=O)[C@@H](Cc3ccc(-c4ccccc4)cc3)NC(=O)[C@@H]3C[C@@H](O)CN3C(=O)[C@H](C(C)(C)C)NC(=O)CCCCCCNC1=O)c1nnc(C)n1-2 [Compound 61] (cyclo([Ahp][Tle][Hyp][dBip][dA][dDap](JQ1acid))) |
| < 50 nM | Cc1ncsc1-c1ccc(C[C@H]2NC(=O)[C@@H]3C[C@@H](O)CN3C(=O)[C@H](C(C)(C)C)NC(=O)COCCNC(=O)[C@@H](CNC(=O)C[C@@H]3N=C(c4ccc(Cl)cc4)c4c(sc(C)c4C)-n4c(C)nnc43)NC(=O)[C@@H](C)NC2=O)cc1 [Compound 70] (cyclo([AEA][Tle][Hyp][X13][dA][dDap](JQ1acid))) |
